{"source": "patent US20110059475A1", "about": "“STABILISATION OF BLOOD CELL CONJUGATES” (THE UNIVERSITY OF NOTTINGHAM, priority 2008, published 2011)", "key": {"platelets [1]": {"test_system": "platelets", "assay": "ADP-induced platelet aggregation in blood of volunteers before and after treatment with clopidogrel or clopidogrel plus aspirin", "details": "ADP 10 μM stimulant tube, citrate blood, percentage of EDTA sample"}, "platelets [2]": {"test_system": "platelets", "assay": "Whole blood platelet aggregation: flow cytometric single platelet count in fixed and stabilised citrate-anticoagulated blood", "format": "cell-based", "description": "Referring to FIG. 1, there are illustrated dot plots by which the number of single platelets may be quantified. Once the number of single platelets has been determined, it is then possible to calculate the percentage degree of platelet aggregation. Quantification of single platelets in whole blood by flow cytometry required 50,000 red cell events which were collected in region P1 on a forward scatter/side scatter plot, as shown in FIG. 1a. CD42a fluorescence was plotted against forward scatter, and region P2 was selected by drawing a curved line to include all platelet-related events and excluding erythrocyte/platelet co-incidences marked “e/p”, as shown in FIG. 1b. EDTA-anti-coagulated blood, or citrate anti-coagulated blood containing EDTA thus containing unstimulated platelets, was used to set three rectangular gates to quantitate microparticles (P3), single platelets (P4), and microaggregates (P5). These gates were then applied to the dot plots obtained for stimulated samples of blood, recording single platelets in P4. An example of results from an ADP-stimulated, fixed sample in which the single platelet events (P4) reduced from 1716 to 182 (indicating the formation of platelet aggregates) is shown in FIGS. 1d, 1e and 1f.\nFixed and stabilised blood samples were mixed gently by repeated inversion of the sample tubes. 100 μl of the fixed blood was placed in a flow cytometry tube and centrifuged at 380 g for 5 minutes after which 90 μl of the supernatant is removed. The remaining 10 μl of fixed blood was then incubated with 10 μl of a 1 in 10 dilution of CD42a-FITC-labelled antibody for 20 min at 4° C. in the FACS tubes. 1 ml of FACSflow (or any other flow cytometry diluent) was added to the tubes immediately prior to reading on any flow cytometer equipped with a laser operating at an excitation wavelength of 488 nm and with detectors for measurement at suitable wavelengths for the selected fluorochromes (ie FITC). Appropriate software was used to acquire and analyse data on dot plots of forward scatter versus side scatter and forward scatter versus FITC fluorescence acquired with logarithmic amplification. Acquisition was stopped after recording 50,000 erythrocyte events. A sample of fixed unstimulated EDTA-anti-coagulated blood was used to set the vertical lines of three square gates P3, P4 and P5 on a forward scatter versus FITC fluorescence plot. These gates were adjusted to record microparticles in P3, single platelets in P4 and any microaggregates in P5 (see Example 2). The test samples are then analysed using the same gates. Larger aggregates would not be detected by the flow cytometer since they would be too large and cannot pass through the sample tube of the machine.\nThe single platelet count described above is a record of the number of single platelets present in each blood sample (recorded as single platelet events, ie the number of single platelets passing the laser) in relation to 50,000 erythrocyte events recorded, ie erythrocytes passing the laser. It is possible to calculate a true platelet count by using standard flow cytometry counting beads, such as those sold under the trade name Trucount. Aggregation is usually determined as a percentage, and in whole blood this may be recorded as a percentage fall in single platelets. […] It is therefore possible to calculate percentage aggregation directly from the recordings of single platelet events using the following formula:—\nWhere “EDTA count” is the number of platelet events (ie single platelets passing the laser) for a sample containing EDTA which has been fixed in the same way as the test samples, and where “Sample count” is the number of platelet events for the fixed test sample. […]"}, "[3]": {"test_system": "platelet-monocyte conjugates", "assay": "Platelet-monocyte conjugates by flow cytometry (CD14 with CD42a or CD62P) in fixed and stabilised blood", "format": "cell-based", "details": "after incubation with collagen", "protocol": "(§1) For example, fixed and stabilised samples are removed from the fridge and mixed well until the sedimented cells are fully re-suspended. 500 μl of each sample is then dispensed into appropriately labelled flow cytometry tubes and centrifuged for 10 min at 380 g. 450 μl of the supernatant is then removed, taking care not to disturb the red blood cell pellet. 10 μl of saturating concentrations of CD14-APCCy7 (used to distinguish monocytes and neutrophils) and CD42a-FITC or CD62P-PE (used to identify platelets bound to either monocytes or neutrophils) is then added to the tubes and incubated with the cells in the dark. After 25 minutes, 1 ml of Erythrolyse solution (AbD Serotec, Oxford, UK) is added to the cells and left to stand for 10 minutes to lyse any red blood cells. 1 ml of FACSflow is added and the cells centrifuged at 380 g. Supernatants are decanted and cells re-suspended in 2 ml of FACSflow to wash the cells. The cells are then centrifuged at 380 g again, the supernatant removed and the cells finally re-suspended in 300 μl of FACSflow to await reading on the flow cytometer.\n(§2) Leukocytes are initially identified by logical gating from dot plots of forward scatter (cell size) and side scatter (cell granularity) profiles acquired with linear amplification. Fluorescence parameters are acquired with logarithmic amplification and 30,000 leukocyte events are collected for each blood sample. […] Lymphocytes may also be identified by CD14 negativity and a low forward scatter/side scatter profile, but platelet-lymphocyte conjugates are formed to a lesser extent and are not routinely quantitated. Platelet-monocyte and platelet-neutrophil conjugates are quantified as the percentage of monocytes or neutrophils expressing platelet CD42a or CD62P fluorescence in an interval gate which may be adjusted using an appropriate IgG control in each case. Median fluorescence values for CD42a or CD62P are also measured for each population of leukocytes tested. […]"}, "[4]": {"test_system": "platelet-neutrophil conjugates", "assay": "Platelet-neutrophil conjugates by flow cytometry (CD14 with CD42a or CD62P) in fixed and stabilised blood", "format": "cell-based", "details": "after incubation with collagen", "protocol": "as §1, §2\nReferring to FIG. 10, there are shown dot plots used for the identification of platelet-leukocyte conjugates in fixed and stabilised blood samples following incubation with (a) saline, or (b) collagen. […] Platelet-monocyte and platelet-neutrophil conjugate formation following stimulation with collagen is seen as a shift to the right in plot (iii) as the degree of platelet-specific CD42a fluorescence (ie marker expression) increases.\nReferring to FIG. 12, there is shown the quantification of platelet-neutrophil conjugates (identified from gates P1 and P4 as shown in FIG. 10) which are detected with the platelet-specific markers CD42a or CD62P. […]"}}, "note": "“Also recorded” adds a separate entry of the source.", "data": [{"molecule": "COC(=O)[C@H](c1ccccc1Cl)N1CCc2sccc2C1", "note": "[clopidogrel]", "values": [{"measurement": "platelet aggregation after treatment compared with before treatment", "setting": "platelets [1]", "result": "less aggregation; also recorded: inhibited"}]}, {"molecule": "Nc1ncnc2c1ncn2[C@@H]1O[C@H](COP(=O)(O)OP(=O)(O)O)[C@@H](O)[C@H]1O", "note": "[ADP, adenosine diphosphate]", "values": [{"measurement": "aggregation (percentage fall in single platelets)", "setting": "platelets [2]; 1 μM ADP, stirred 4 minutes", "result": 27, "unit": "%"}, {"measurement": "aggregation (percentage fall in single platelets)", "setting": "platelets [2]; 3 μM ADP, stirred 4 minutes", "result": 62, "unit": "%"}, {"measurement": "aggregation (percentage fall in single platelets)", "setting": "platelets [2]; 10 μM ADP, stirred 4 minutes", "result": 89, "unit": "%"}, {"measurement": "single platelet events (P4)", "setting": "platelets [2]; ADP-stimulated fixed sample, per 50,000 red cell events, unstimulated 1716", "result": 182}]}, {"molecule": "collagen", "values": [{"measurement": "single platelet events in P4 (sample count)", "setting": "platelets [2]; collagen 1 μg/ml, 4 minutes, per 50,000 erythrocyte events, EDTA count 1118", "result": 693}, {"measurement": "degree of aggregation (percentage fall in single platelets compared with EDTA sample)", "setting": "platelets [2]; collagen 1 μg/ml, stirred 4 minutes, citrate-anticoagulated blood", "result": "about 38%"}, {"measurement": "platelet-monocyte conjugates, percentage of parent monocyte population (CD42a, % gated)", "setting": "[3]; saline 8.2", "result": 64.1, "unit": "%"}, {"measurement": "platelet-monocyte conjugates, percentage of parent monocyte population (CD62P, % gated)", "setting": "[3]; saline 9.3", "result": 98.7, "unit": "%"}, {"measurement": "CD42a median fluorescence of monocyte population", "setting": "[3]; saline 259", "result": 832, "unit": "arbitrary units"}, {"measurement": "platelet-neutrophil conjugates, percentage of parent neutrophil population (CD62P, % gated)", "setting": "[4]; saline 7.3", "result": 72.1, "unit": "%"}, {"measurement": "platelet-neutrophil conjugates, percentage of parent neutrophil population (CD42a, % gated)", "setting": "[4]; saline 7.9", "result": 21.9, "unit": "%"}, {"measurement": "CD62P median fluorescence of neutrophil population", "setting": "[4]; saline 141", "result": 688}, {"measurement": "CD42a median fluorescence of neutrophil population", "setting": "[4]; saline 142", "result": 201}]}, {"molecule": "CCCCC[C@H](O)/C=C/[C@@H]1[C@@H](C/C=C\\CCCC(=O)O)[C@H]2CO[C@@H]1C2", "note": "[U46619]", "values": [{"measurement": "degree of aggregation (percentage fall in single platelets)", "setting": "platelets [2]; 1 μM U46619, same donor, citrate-anticoagulated blood", "result": 96, "unit": "%"}]}, {"molecule": "Thrombin Receptor Activating Peptide [TRAP]", "values": [{"measurement": "degree of aggregation (percentage fall in single platelets)", "setting": "platelets [2]; 10 μM TRAP, same donor, citrate-anticoagulated blood", "result": 89, "unit": "%"}]}, {"molecule": "Platelet Activating Factor [PAF]", "values": [{"measurement": "degree of aggregation (percentage fall in single platelets)", "setting": "platelets [2]; 3 μM PAF, same donor, citrate-anticoagulated blood", "result": 70, "unit": "%"}]}, {"molecule": "CC(=O)Oc1ccccc1C(=O)O", "note": "[aspirin]", "values": [{"measurement": "effect on collagen-induced platelet aggregation", "setting": "platelets [2]; collagen 1, 2, 3, 4 μg/ml for 10 minutes, presence vs absence of aspirin, three donors", "result": "significantly reducing the amount of aggregation"}]}, {"molecule": "CCCCC/C=C\\C/C=C\\C/C=C\\C/C=C\\CCCC(=O)O", "note": "[AA, arachidonic acid]", "values": [{"measurement": "degree of aggregation (percentage fall in single platelets)", "setting": "platelets [2]; 200 nM arachidonic acid, same donor, citrate-anticoagulated blood", "result": 54, "unit": "%"}]}]}
